Legend:
[1] = urate-lowering therapy ref 6; cited from earlier work
[2] = oral; 7 (100 mg/kg) versus 4 (300 mg/day) or 5 (1000 mg/day) ref 22; cited from earlier work
[3] = target: T1, human uric acid transporter 1 (hURAT1; SLC22A12) (Homo sapiens, UniProt Q96S37); assay: 14C-uric acid uptake inhibition in Xenopus oocytes expressing hURAT1; type: cell-based; settings: for 14C-urate transport inhibition (in words): test compound at 50 μM
T1 sequence (Q96S37 1-553): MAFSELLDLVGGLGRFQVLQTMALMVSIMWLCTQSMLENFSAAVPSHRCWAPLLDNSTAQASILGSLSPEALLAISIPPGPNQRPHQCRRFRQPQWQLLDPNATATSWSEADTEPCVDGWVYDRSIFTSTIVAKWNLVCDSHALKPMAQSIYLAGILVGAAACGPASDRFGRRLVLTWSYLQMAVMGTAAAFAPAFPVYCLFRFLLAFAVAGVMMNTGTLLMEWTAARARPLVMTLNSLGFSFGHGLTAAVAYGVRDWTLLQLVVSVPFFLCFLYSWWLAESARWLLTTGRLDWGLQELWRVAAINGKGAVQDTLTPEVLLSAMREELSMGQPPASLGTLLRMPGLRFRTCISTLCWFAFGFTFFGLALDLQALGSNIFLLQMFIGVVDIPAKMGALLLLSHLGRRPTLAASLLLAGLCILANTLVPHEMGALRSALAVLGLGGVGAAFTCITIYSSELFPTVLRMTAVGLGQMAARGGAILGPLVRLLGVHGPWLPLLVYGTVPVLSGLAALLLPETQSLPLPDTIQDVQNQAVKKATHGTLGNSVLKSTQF

Row | SMILES | IC50 [3] [nM] | 14C-urate transport inhibition (in words) [3] | also measured
1 | Oc1ncnc2[nH]ncc12 [Compound 3, allopurinol] |  |  | patients able to meet treatment goals [1]: about 40%
2 | CCc1oc2ccccc2c1C(=O)c1cc(Br)c(O)c(Br)c1 [Compound 7, (3,5-dibromo-4-hydroxyphenyl)(2-ethylbenzofuran-3-yl)methanone] |  |  | physiological effect (lowers urate level) compared with 4 and 5 [2]: greater physiological effect
3 | CCc1oc2ccccc2c1C(=O)c1ccc(OC)cc1 [Compound 12, (2-ethylbenzofuran-3-yl)(4-methoxyphenyl)methanone] | > 50000 | weak-to-no | 
4 | CCc1oc2ccc(OC)cc2c1C(=O)c1ccc(OC)cc1 [Compound 14, (2-ethyl-5-methoxybenzofuran-3-yl)(4-methoxyphenyl)methanone] |  | weak inhibition | 
5 | CCc1oc2c(OC)cccc2c1C(=O)c1ccc(OC)cc1 [Compound 19, (2-ethyl-7-methoxybenzofuran-3-yl)(4-methoxyphenyl)methanone] |  | weak inhibition | 
6 | CCc1oc2cc(OC)c(Br)cc2c1C(=O)c1cc(Br)c(O)c(Br)c1 [Compound 46, (5-bromo-2-ethyl-6-methoxybenzofuran-3-yl)(3,5-dibromo-4-hydroxyphenyl)methanone] | 1650 ± 120 |  | inhibition at 50 µM ([3]; read-out: % Inhibition @ 50 μM): 98.1 ± 0.2%
